Data from article PMC9782626, “Copper(II) Complexes of 5–Fluoro–Salicylaldehyde: Synthesis, Characterization, Antioxidant Properties, Interaction with DNA and Serum Albumins” (Molecules, 2022).
Where two headings read alike, the source gives them in different places.

Experiments:
[1] = design: method as in PMID 35890184; conditions: cited from earlier work
[2] = design: method as in PMID 35890184; conditions: cited from earlier work; remark: listed apart in the source
[3] = design: method as in PMID 35890184; conditions: cited from earlier work; remark: listed apart in the source
CT DNA = conditions: cited from earlier work
[4] = system: EB–DNA conjugate (CT DNA); design: method as in PMID 35890184; conditions: cited from earlier work
[5] = target: T1, bovine serum albumin (BSA) (Bos taurus, UniProt P02769); design: method as in PMID 35890184; conditions: cited from earlier work
T1 construct: purchased Sigma–Aldrich Co
T1 sequence (P02769 25-607): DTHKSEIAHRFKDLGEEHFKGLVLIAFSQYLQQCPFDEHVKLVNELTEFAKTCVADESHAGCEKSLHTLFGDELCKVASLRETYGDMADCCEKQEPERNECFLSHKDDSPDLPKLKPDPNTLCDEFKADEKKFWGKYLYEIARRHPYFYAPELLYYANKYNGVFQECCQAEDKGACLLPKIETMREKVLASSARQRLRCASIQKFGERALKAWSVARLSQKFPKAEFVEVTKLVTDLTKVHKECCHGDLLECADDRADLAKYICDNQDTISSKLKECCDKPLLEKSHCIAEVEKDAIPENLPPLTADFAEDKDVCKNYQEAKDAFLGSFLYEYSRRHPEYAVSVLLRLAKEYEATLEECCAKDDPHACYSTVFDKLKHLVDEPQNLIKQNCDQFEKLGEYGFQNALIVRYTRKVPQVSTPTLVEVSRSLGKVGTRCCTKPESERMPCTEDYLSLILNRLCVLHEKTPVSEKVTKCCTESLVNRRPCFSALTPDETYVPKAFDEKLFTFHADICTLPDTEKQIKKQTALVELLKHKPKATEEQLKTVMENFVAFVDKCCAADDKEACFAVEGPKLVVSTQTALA

[6] = target: T2, human serum albumin (HSA) (Homo sapiens, UniProt P02768); design: method as in PMID 35890184; conditions: cited from earlier work
T2 construct: purchased Sigma–Aldrich Co
T2 sequence (P02768 25-609): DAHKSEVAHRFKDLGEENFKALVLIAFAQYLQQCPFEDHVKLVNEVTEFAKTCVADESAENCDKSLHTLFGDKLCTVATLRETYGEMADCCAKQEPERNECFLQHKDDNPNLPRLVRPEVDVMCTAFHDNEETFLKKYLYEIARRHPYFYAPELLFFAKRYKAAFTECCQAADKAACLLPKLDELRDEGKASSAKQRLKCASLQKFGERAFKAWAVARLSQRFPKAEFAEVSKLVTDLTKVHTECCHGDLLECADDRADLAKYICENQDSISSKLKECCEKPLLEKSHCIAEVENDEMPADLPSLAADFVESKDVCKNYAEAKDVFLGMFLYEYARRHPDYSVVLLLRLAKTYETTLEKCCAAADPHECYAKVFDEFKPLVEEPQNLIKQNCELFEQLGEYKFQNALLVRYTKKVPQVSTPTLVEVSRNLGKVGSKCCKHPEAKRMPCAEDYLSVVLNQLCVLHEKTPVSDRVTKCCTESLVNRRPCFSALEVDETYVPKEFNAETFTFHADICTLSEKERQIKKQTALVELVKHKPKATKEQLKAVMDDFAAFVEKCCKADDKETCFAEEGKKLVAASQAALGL

[7] = DPPH radical scavenging assay; assay type: biochemical; conditions: compound 0.1 mM
Excerpt: (§1) For the above reasons, the antioxidant ability of 5–F–saloH and Cu(II) complexes 1–5 has been evaluated via their scavenging activity towards DPPH and ABTS radicals, as well as the ability to reduce H2O2, and in comparison with that of well-known antioxidant agents such as nordihydroguaiaretic acid (NDGA), butylated hydroxytoluene (ΒHΤ), 6–hydroxy–2,5,7,8–tetramethylchromane–2–carboxylic acid (trolox) and L–ascorbic acid (these are the most commonly used standard reference antioxidant agents). The DPPH-radical assay was developed in the 1950s and this method has been used to assess the antioxidant capacity of several metal complexes. The DPPH–scavenging ability of compounds has often been related to their ability to prevent ageing, cancer and inflammation. The ability of a compound to scavenge the cationic ABTS radicals (ABTS^+●) has been considered a measure of its total antioxidant activity. Further, hydrogen peroxide has the ability to penetrate biological membranes and, although it is not very reactive itself, it can sometimes be toxic since it may give rise to hydroxyl radicals in cells. For this reason, the removal of H2O2 is very important for the protection of living systems. When a compound is incubated with H2O2 using a peroxidase assay system, the loss of H2O2 can be measured.
(§2) S1 Antioxidant activity assay
(§3) The antioxidant activity of the compounds was evaluated via their ability to scavenge in vitro free radicals such as DPPH and ABTS and to reduce H 2O2. All the experiments were carried out at least in triplicate and the standard deviation of absorbance was less than 10% of the mean.
S1.1 Determination of the reducing activity of the radical DPPH
To an ethanolic solution of DPPH (0.1 mM) an equal volume solution of the compounds (0.1 mM) in ethanol was added. Absolute ethanol was also used as control solution. The absorbance at 517 nm was recorded at room temperature after 30 and 60 min, in order to examine the possible existence of a potential time-dependence of the DPPH radical scavenging act iv ity [S 1]. The DPPH -scavenging activity of the compounds was expressed as the percentage reduction of the absorbance values of the initial DPPH solution ( DPPH%). N DGA and BHT were used as reference comp ounds. […]

[8] = Reduction of hydrogen peroxide; assay type: biochemical; conditions: compound 0.1 mM, 10 min, pH 7.4
Excerpt: as §1, §2, §3
S1.1 Determination of the reducing activity of the radical DPPH […]
S1.3 Reduction of hydrogen peroxide
The ability of the com pounds to reduce hydrogen peroxide (H2O2) was est imated according to the method descr ibed in the literature [S2]. The reaction mixture contained 20 μL of each of the tested compounds (0.1 mM) and 5 μL H2O 2 solution (40 mM) in phosphate buffer (50 mM, pH = 7.4). The absorbance was measure d at 230 nm after 10 min.
The antioxidant activity (reduction of hydrogen peroxide) of the compounds wa s […]
expressed as the percentage decrease of t he init ial H 2O2 solution (H 2O2%). L-ascor b ic ac id (or vitamin C) was use d as a standard. […]
[DNA] = [DNA] + 1 (eq. S1) […]
where [DNA] is the concentration of DNA in base pa irs, εA = Aobsd/[compound ], εf = the extinction coefficient for the free compound and ε b = the extinction coefficient for the compound in the fully bound form. Kb is given by the ratio of slope to the y intercept in plots [DNA]/(εA-εf) versus[DNA].
S2.2CT DNA -binding studie s by viscosity measurements
The interaction of compounds with DNA has been evaluated via the study of the CT DNA viscosity ([DNA] = 0.1 mΜ) in a buffer solution (150 mM NaCl and 15 mM trisodium citrate at pH 7.0) in the presence of increasing amount of complexes (up to the value of r = 0.36). The obtained data are presented as (η/η 0)1/3 versus r, where η is the viscosity of DNA in the presence of the compound, and η0 is the viscosity of DNA alone in buffer solution.
S2.3 EB -displa cement studie s
The competition of the complexes with EB was investigated by fluorescence emission spectroscopy in order to examine whether the compounds can displace EB from its DNA-EB conjugate. The CT DNA-EB complex was formed by pre-treating 20 μM EB and 26 μM CT DNA in buffer (150 mM NaCl and 15 mM trisodium citrate at pH = 7.0).
The possible displacement of EB by the compounds and su bseq uently t he ir intercalating effect was studied by the stepwise addition of a certain amount of the solution of each

[9] = ABTS radical cation scavenging assay; assay type: biochemical; conditions: compound 0.1 mM, 1 min
Excerpt: as §1, §2
The antioxidant activity of the compounds was evaluated via their ability to scavenge in vitro free radicals such as DPPH and ABTS and to reduce H 2O2. All the experiments were carried out at least in triplicate and the standard deviation of absorbance was less than 10% of the mean. […]
S1.2 Assay of radical cation ABTS-scavengin g activity
The ABTS assay was performed to determine the activity of the compounds to scavenge the radical cation ABTS. Initially, a water solution of ABTS was prepared (2 mM). ABTS radical cation (ABTS+·) was produced by the reaction of ABTS stock solution with potassium persulfate (0.17 mM) and the mixture was stored in the dark at room temperature for 12-16 h before its use. The ABTS was oxidized incompletely because the stoichiometric reaction ratio of ABTS and potassium persulfate is 1:0.5. The absorbance became maximal and stable only after more than 6 h of reaction although the oxidation of the ABTS started immediately. The radical was stable in this form for more than 2 days when allowed to stand in the dark at room temperature. Afterwards, the ABTS+· solution was diluted in ethanol to an absorbance of 0.70 at 734 nm and 10 μL of diluted compounds or standards (0.1 mM) in DMSO were added. The absorbance was recorded out exactly 1 min after init ial m ix in g [S 1]. The ABTS radical scavenging act ivit y was expressed as the percentage inhibition of the absorbance of the initial ABTS solution (ABTS%). Trolox was used as an appropriate standard. […]

For `O=Cc1cc(F)ccc1O` [5–F–saloH, 5–fluoro–salicylaldehyde], the “DPPH% (30 min), % DPPH–scavenging ability” value (“DPPH% (30 min)” below) ([1]; 30 min) is listed as 3.96 ± 1.16%, the “DPPH% (60 min), % DPPH–scavenging ability” value (“DPPH% (60 min)” below) ([1]; 60 min) is listed as 5.56 ± 1.06% and the “ABTS%, % ABTS–scavenging activity” value [2] is listed as 19.57 ± 0.58%. For the same compound, the “H2O2%, H2O2–reducing activity” value [3] was 71.84 ± 0.95%, the “ΔA/Aο, percentage of hyper-/hypo-chromism upon addition of CT DNA” value (CT DNA; band at 334 nm) was −30% and the “ΔA/Aο, percentage of hyper-/hypo-chromism upon addition of CT DNA” value (CT DNA; band at 421 nm) was “> +50%”. The “EB–DNA quenching constant kq” value [4] was 1.73 (±0.05) × 10^12 M^−1 s^−1, the “Stern–Volmer constant Ksv (EB–DNA)” value [4] was 3.79 (±0.11) × 10^4 M^−1 and the “ΔΙ/Ιο, percentage of EB–DNA fluorescence quenching” value [4] was 51.3%. The “EB–DNA relative fluorescence emission intensity I/Io remaining (% of initial)” value ([4]; λemission = 592 nm, final value) was 48.7%, the “BSA-binding constant K” value [5] was 4.31 (±0.31) × 10^4 M^−1 and the BSA-quenching constant kq [5] was 1.98 (±0.08) × 10^12 M^−1 s^−1. The “ΔΙ/Ιο, quenching of the BSA fluorescence” value [5] was 25.7%, the “% relative BSA fluorescence emission intensity I/Io remaining (% of initial)” value ([5]; final value) was 74.3% and the “HSA-binding constant K” value [6] was 4.65 (±0.35) × 10^4 M^−1. For the same compound, the HSA-quenching constant kq [6] was 1.96 (±0.07) × 10^12 M^−1 s^−1, the “ΔΙ/Ιο, quenching of the HSA fluorescence” value [6] was 25.7% and the “% relative HSA fluorescence emission intensity I/Io remaining (% of initial)” value ([6]; final value) was 74.3%.

With `Cc1cc(C(C)(C)C)c(O)c(C(C)(C)C)c1` [BHT, butylated hydroxytoluene, reference compound] the “DPPH% (30 min)” value [7] was 61.30 ± 1.16% and the “DPPH% (60 min)” value [7] was 79.78 ± 1.12%.

With `O=C1O[C@H]([C@@H](O)CO)C(O)=C1O` [L–ascorbic acid, reference compound] the “H2O2%, H2O2–reducing activity” value [8] was 60.80 ± 0.20%.

In the case of `CC(Cc1ccc(O)c(O)c1)C(C)Cc1ccc(O)c(O)c1` (stereo not drawn) [NDGA, nordihydroguaiaretic acid, reference compound], the “DPPH% (30 min)” value [7] was 87.08 ± 0.12% and the “DPPH% (60 min)” value [7] was 87.47 ± 0.12%.

With `Cc1c(C)c2c(c(C)c1O)CCC(C)(C(=O)O)O2` (stereo not drawn) [Trolox, 6–hydroxy–2,5,7,8–tetramethylchromane–2–carboxylic acid, reference compound] the “ABTS%, % ABTS–scavenging activity” value [9] was 98.10 ± 0.48%.
